We go through one compound from PMC4710522, “A Novel Triazolopyridine-Based Spleen Tyrosine Kinase Inhibitor That Arrests Joint Inflammation” (PLoS ONE, 2016).

The test system of one data set is AMPK_r. Kind of data set: SelectScreen kinase assay. The class given is biochemical, rat. The settings on record: 3 µM, KM ATP. The method, then:
Syk kinase mode of inhibition studies, including parameters described in Fig 1, were conducted on the LC3000 platform by Caliper Life Sciences (Hopkinton, MA) according to standard protocols developed by the supplier. […] Non-kinase enzyme assays and GPCR, ion channel, and transporter binding assays were run by CEREP (France). Non-GLP manual patch clamp hERG assays were run by ChanTest (Cleveland, Ohio). Vivid® Assay kits (Life Technologies) were used to measure the cytochrome P450 inhibition of the compound against CYP3A, CYP2C9, CYP2C19, CYP2D6, and CYP1A2, as described.
Kinase activity was measured using either the Z’-Lyte® or the Adapta® protocols as part of the SelectScreen™ profiling service offered at Life Technologies (Grand Island, NY). For the single point measurements (Part A), CC-509 was kept constant at 3 µM while ATP concentrations [ATP] used were at the KM for ATP (KM ATP) for that specific enyzme, at 10 or 100 µM ATP (10 ATP or 100 ATP, respectively), as indicated. Values expressed as percent control (% control) relative to DMSO-only wells (uninhibited, 100%).
Kinase activity was measured using either the Z’-Lyte® or the Adapta® protocols as part of the SelectScreen™ profiling service offered at Life Technologies (Grand Island, NY). […] Values expressed as percent control (% control) relative to DMSO-only wells (uninhibited, 100%).

The target of the next data set is T1, CK1-gamma3_h (Homo sapiens, UniProt Q9Y6M4).
T1 construct: purchased Life Technologies (Invitrogen) SelectScreen, Z'-LYTE / Adapta
In words: SelectScreen kinase assay. The class given is biochemical. The settings on record: KM ATP, read-out: % control.

Data set [1] has as its target T2, Tel-Syk fusion protein in HEK293 cells (Homo sapiens, UniProt P41212+P43405).
T2 construct: human Syk (NM_003177.5) kinase domain corresponding to amino acids 341–612; myristoylation motif (N); expressed in transfected cells
Kind of data set: Tel-Syk biomarker assay (in-cell western, Syk Y525/526 phosphorylation). It counts as cell-based.
Protocol: HEK293 T-REx™ (Life Technologies, Grand Island, NY) stably transfected with human TEL-Syk (cloned as described prior section DNA constructs) were plated on black poly-D-lysine coated 96-well plates (BD Biosciences, San Diego, CA) in culture media containing tetracycline-free fetal bovine serum (Clontech, MountainView, CA) for 16 hours in a tissue culture incubator. Tel-Syk expression was induced for 6 hours in fresh growth media containing 1 μg/ml tetracycline (Sigma Chemicals, St. Louis, MO). […] Plates were blocked with Odyssey Blocking Buffer for 90 minutes at room temperature and incubated overnight at 4°C on a rotating platform with rabbit phospho-Syk (1:1000) and mouse V5 (1:2500) primary antibodies diluted in Odyssey Blocking Buffer. The plates were washed 5 times with 1X PBS + 0.1% Tween-20, incubated for 1 hour at room temperature with anti-rabbit IR680 (1:1000) and anti-mouse IR800CW (1:1000) secondary antibodies diluted in Odyssey Blocking Buffer, and washed 5 additional times with 1X PBS + 0.1% Tween-20 at room temperature. The plates were scanned on the Li-Cor Odyssey instrument (Li-Cor Biosciences, Lincoln, NE) in the 700 and 800 channels.
For the TEL-Syk assay, the intensity values for the 700 and 800 channel were exported as text files in ActivityBase (IDBS, Guildford, UK) to derive the ratios that reflect kinase activity. […]

Data set [2] concerns rat passive cutaneous anaphylaxis model. Kind of data set: rat passive cutaneous anaphylaxis (PCA) model. The class given is in vivo. As to the method:
On day 0, male CD-IGS rats (170 – 190g; Charles River Laboratories) were anesthetized with isofluorane, their dorsal region shaved and 50 μl Anti-DNP-IgE (Clone SPE-7, Sigma, St. Louis, MO) that had been diluted 1:1000 in saline was injected via the intradermal route at 3 individual spots along the right side of the back. Saline was injected via the intradermal route at 3 individual spots along the left side of the back as a sham control. Twenty-four hours later, 200 μl of BSA-DNP (Calbiochem, San Diego, CA), prepared (1 mg prepared in a 2% solution of Evans blue dye: Sigma Chemicals, St. Louis, MO) was injected via the IV route via the tail vein. Thirty minutes after the BSA-DNP challenge the experiment was terminated and skin samples from the middle of each injection site taken for Evans blue dye measurement at an OD measurement at 620nm on a plate reader following incubation (2h at 90°C) and homogenization in formamide (Sigma Chemicals, St. Louis, MO). Vehicle (20% Captisol® (Captisol), PO), the positive control (Cromolyn: Sigma Chemicals, St. Louis, MO 100mg/kg, 2mL/kg, IV) or CC0484509 (3 and 10mg/kg, PO) were dosed 1h prior to the IV challenge with BSA-DNP.
For the TEL-Syk assay, the intensity values for the 700 and 800 channel were exported as text files in ActivityBase (IDBS, Guildford, UK) to derive the ratios that reflect kinase activity. For LAD2 experiments, enzyme activity values were exported as text files into ActivityBase to calculate “percent release” according to the formula: 100* supernatant OD405/ (supernatant OD405 + (pellet OD405*pellet dilution factor)). For the basophil and B-cells assays, flow cytometry data was exported from the FACS Array and processed using FloJo software package (TreeStar, Inc., Ashland, Oregon). For the JAK2 HEL and Ramos NFAT β-lactamase assays, the fluorescence values obtained at 460 nm and 530 nm were exported into ActivityBase to calculate response ratios. For the neutrophil, macrophage, KDR, and JAK1/3 assays, raw values were exported into ActivityBase to calculate percent inhibition. All IC50 calculations were generated using XLfit (IDBS, Guildford, UK) algorithm 205 within Excel. For PCA, the OD from the saline injected site was subtracted from the OD from the anti-DNP IgE injected site. Evans blue dye extravasation was expressed as mean ± SEM and % inhibition for the test article groups was normalized to the cromolyn positive control. For the CIA model paw measurements (left and right ankle diameter) were taken for each individual animal and averaged. The mean data from each group was plotted and either the AUC(day 11–18) or % inhibition on day 18 was calculated. Data is expressed as mean ± SEM of each group with n = 6–12. […]

Data set [3] in a line: preclinical toxicology studies, myelosuppression in male rats. It counts as in vivo, rat.

T1 sequence (Q9Y6M4 whole entry): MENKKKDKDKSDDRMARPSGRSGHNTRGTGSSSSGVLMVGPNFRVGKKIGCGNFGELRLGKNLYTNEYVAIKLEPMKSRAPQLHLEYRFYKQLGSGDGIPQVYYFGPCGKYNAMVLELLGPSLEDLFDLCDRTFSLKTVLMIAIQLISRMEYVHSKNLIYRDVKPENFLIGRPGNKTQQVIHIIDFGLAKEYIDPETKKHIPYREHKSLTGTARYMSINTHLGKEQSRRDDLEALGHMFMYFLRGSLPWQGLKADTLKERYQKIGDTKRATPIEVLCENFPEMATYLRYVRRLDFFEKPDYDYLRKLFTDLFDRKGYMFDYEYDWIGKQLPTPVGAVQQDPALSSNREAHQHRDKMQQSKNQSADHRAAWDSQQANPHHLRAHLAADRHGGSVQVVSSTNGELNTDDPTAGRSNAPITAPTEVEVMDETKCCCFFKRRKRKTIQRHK
T2 sequence (P41212+P43405 fused): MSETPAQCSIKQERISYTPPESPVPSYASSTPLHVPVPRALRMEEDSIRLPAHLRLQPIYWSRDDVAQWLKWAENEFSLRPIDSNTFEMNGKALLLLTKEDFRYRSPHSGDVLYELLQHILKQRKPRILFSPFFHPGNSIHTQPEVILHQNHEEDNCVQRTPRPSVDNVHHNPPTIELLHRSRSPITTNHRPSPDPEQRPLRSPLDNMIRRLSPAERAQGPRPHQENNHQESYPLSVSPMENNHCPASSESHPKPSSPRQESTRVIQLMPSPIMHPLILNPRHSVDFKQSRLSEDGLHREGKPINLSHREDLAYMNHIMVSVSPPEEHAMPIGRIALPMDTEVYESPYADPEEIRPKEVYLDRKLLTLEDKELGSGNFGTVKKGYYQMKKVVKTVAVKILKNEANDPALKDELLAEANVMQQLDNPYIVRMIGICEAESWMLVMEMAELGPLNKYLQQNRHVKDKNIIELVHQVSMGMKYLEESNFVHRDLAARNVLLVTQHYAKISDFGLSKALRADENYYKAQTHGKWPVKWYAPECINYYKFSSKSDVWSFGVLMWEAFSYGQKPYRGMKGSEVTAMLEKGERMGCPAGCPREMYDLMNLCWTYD

The term IC50 denotes the midpoint of a concentration-inhibition curve. Low readings indicate greater potency in that assay, high ones weaker potency in that assay. Usually ED50 stands for the dose at which the effect has come halfway, by size or by number of responders. Lower therefore signals greater potency. On to `c1cc(CC2CCOCC2)n2nc(Nc3ccc4c(NC5CCOCC5)n[nH]c4c3)nc2c1` [CC-509, [3-(2H-3,4,5,6-tetrahydropyran-4-ylamino)(1H-indazol-6-yl)][5-(2H-3,4,5,6-tetrahydropyran-4-ylmethyl)(2H-1,2,4-triazolo[1,5-a]pyridin-2-yl)]amine], for which the “% control” value in the data set with AMPK_r stood at 84%. Also, the remaining activity at 3 µM at CK1-gamma3_h worked out at 50%. In data set [1], this compound returned an IC50 of 610 ± 190 nM. Also, the “inhibition of skin edema, normalized to cromolyn” value in data set [2] (3 mg/kg PO, not statistically significant) is 26%. In data set [2] (10 mg/kg PO, p<0.01), the “inhibition of skin edema, normalized to cromolyn” value turned out to be 81%. Besides, the ED50 in data set [2] (Rattus norvegicus, PCA model, dye extravasation) is about 5 mg/kg. Besides, in data set [3], the exposure producing myelosuppression stood at 630 µM·h and the “fold higher exposure producing myelosuppression than R406” value is reported as “approximately 5 fold”.
